Reference: ChEMBL document CHEMBL2029326, “Alstiphyllanines I-O, ajmaline type alkaloids from Alstonia macrophylla showing vasorelaxant activity” (Bioorg Med Chem, 2012)
Calls of active or inactive are those of the source. The calls are words filed in the database; no cut-off is given here.

Columns and labels:
Type in all cases: functional, tissue-based
Aorta [1] = assay: Vasorelaxant activity in Wistar rat endothelium-intact thoracic aortic ring assessed as inhibition of phenylephrine-induced contraction at 30 uM measured after 60 mins
Aorta [2] = assay: Vasorelaxant activity in Wistar rat phenylephrine-prestimulated endothelium-denuded thoracic aortic ring assessed as inhibition of CaCl2-induced contraction added before PE-stimulation
Aorta [3] = assay: Vasorelaxant activity in Wistar rat endothelium-denuded thoracic aortic ring assessed as inhibition of phenylephrine-induced contraction measured after 60 mins in presence of Bkca inhibitor TEA pretreated for 30 mins before contraction
Aorta [4] = assay: Vasorelaxant activity in Wistar rat endothelium-intact thoracic aortic ring assessed as inhibition of phenylephrine-induced contraction at 100 uM measured after 60 mins
Aorta [5] = assay: Vasorelaxant activity in Wistar rat endothelium-denuded thoracic aortic ring assessed as inhibition of phenylephrine-induced contraction measured after 60 mins in presence of 100 uM L-NMMA
Aorta [6] = assay: Vasorelaxant activity in Wistar rat endothelium-denuded thoracic aortic ring assessed as inhibition of KCl-induced contraction at 30 uM pretreated for 30 mins measured after 60 mins
Aorta [7] = assay: Vasorelaxant activity in Wistar rat endothelium-denuded thoracic aortic ring assessed as inhibition of phenylephrine-induced contraction measured after 60 mins
Aorta [8] = assay: Vasorelaxant activity in Wistar rat endothelium-intact thoracic aortic ring assessed as inhibition of phenylephrine-induced contraction at 30 uM measured within 5 to 15 mins

`C/C=C1\C[N+]2([O-])[C@H]3C[C@@H]1[C@]1(C(=O)OC)[C@@H](OC(C)=O)[C@]4(C[C@@H]12)c1ccccc1N(C)[C@H]34` was tested. Which Activity (Aorta [1]) did it give?
The Activity was “Active”.

Which Activity (Aorta [1]) does the source give for `C/C=C1\CN2[C@H]3C[C@@]45c6ccccc6N(C)[C@@H]4[C@@H]2C[C@@H]1[C@@]3(C(=O)OC)C5OC(=O)c1ccc(OC)c(OC)c1` (some centres undefined) here?
The Activity was “Active”.

Which Activity (Aorta [1]) does the source give for `C/C=C1\CN2[C@H]3C[C@@]45c6ccccc6N(C)[C@@H]4[C@@H]2C[C@@H]1[C@@]3(C(=O)OC)C5O` (some centres undefined) here?
The Activity was “Active”.

With `C/C=C1\CN2[C@H]3C[C@@]45c6ccccc6N(C)[C@@H]4[C@@H]2C[C@@H]1[C@@]3(C(=O)OC)C5OC(=O)c1cc(OC)c(OC)c(OC)c1` (some centres undefined) as the molecule, how does the Activity (Aorta [1]) read?
Its Activity is “Active”.

How did the Activity (Aorta [1]) turn out when `C/C=C1\CN2[C@H]3C[C@@]45c6ccccc6N(C(=O)c6ccc(OC)c(OC)c6)[C@@H]4[C@@H]2C[C@@H]1C3(C(=O)OC)[C@H]5OC(C)=O` (relative stereo) was run?
The Activity was “Active”.

`C/C=C1\CN2[C@H]3C[C@@]45c6ccccc6N(C)[C@@H]4[C@@H]2C[C@@H]1[C@@]3(C(=O)OC)C5OC(C)=O` (some centres undefined) was tested. Which Activity (Aorta [2]) did it give?
Its Activity is “Active”.

And the Activity (Aorta [3])?
Its Activity is “Dose-dependent effect”.

What about the Activity (Aorta [4]) of the same molecule?
Its Activity is “Active”.

And the Activity (Aorta [5])?
The Activity was “inactive”.

What about the Activity (Aorta [6]) of the same molecule?
Its Activity is “Active”.

And the Activity (Aorta [7])?
Its Activity is “Active”.

And the Activity (Aorta [1])?
Its Activity is “Active”.

And the Activity (Aorta [8])?
Its Activity is “Active”.

How did the Activity (Aorta [1]) turn out when `C/C=C1\CN2[C@H]3C[C@@]45c6ccccc6N(C(=O)c6ccc(OC)c(OC)c6)[C@@H]4[C@@H]2C[C@@H]1C3(C(=O)OC)[C@H]5O` (some centres undefined) was run?
Its Activity is “Active”.

With `C/C=C1\CN2[C@H]3C[C@@]45c6ccccc6N(C(=O)c6cc(OC)c(OC)c(OC)c6)[C@@H]4[C@@H]2C[C@@H]1C3(C(=O)OC)[C@H]5O` (some centres undefined) as the molecule, how does the Activity (Aorta [1]) read?
Its Activity is “Active”.

`C/C=C1\C[N+]2([O-])[C@H]3C[C@@H]1[C@@]1(C(=O)OC)C(O)[C@]4(C[C@@H]12)c1ccccc1N(C)[C@H]34` (some centres undefined) was tested. Which Activity (Aorta [1]) did it give?
Its Activity is “Active”.

For `C/C=C1\CN2[C@H]3C[C@@]45c6ccccc6N(C(=O)c6ccccc6)[C@@H]4[C@@H]2C[C@@H]1C3(C(=O)OC)[C@H]5O` (some centres undefined), which Activity (Aorta [1]) is on record?
The Activity was “Active”.

`C/C=C1\CN2[C@H]3C[C@@]45c6ccccc6N(C(=O)c6cc(OC)c(OC)c(OC)c6)[C@@H]4[C@@H]2C[C@@H]1C3(C(=O)OC)[C@H]5OC(C)=O` (some centres undefined) was tested. Which Activity (Aorta [1]) did it give?
Its Activity is “Active”.

For `C/C=C1/CN2[C@H]3C[C@@]45c6ccccc6N(C(=O)c6cc(OC)c(OC)c(OC)c6)[C@@H]4[C@@H]2C[C@@H]1C3(C(=O)OC)[C@H]5O` (some centres undefined), which Activity (Aorta [1]) is on record?
The Activity was “Active”.
